Data from EP0850950A1, “PEPTIDE DERIVATIVES” (DAIICHI PHARMACEUTICAL CO., LTD., priority 1995, dated 1998).

Test system: Mice
Test: analgesic activity by pressure stimulation method (tail base)
Assay type: in vivo
Conditions: percent of maximum possible effect, maximum stimulating pressure 100 mmHg; for MPE(%) 1 mg/kg s.c. (%): 1 mg/kg subcutaneous administration (skin in the backs); for MPE(%) 10 mg/kg p.o.(%): 10 mg/kg oral administration
Procedure: The analgesic activities of the peptide derivatives of the present invention were evaluated by pressure stimulation method. Mice were subjected to pressure stimulation at the bases of their tails at a rate of 10 mmHg/second. […] For the experiments, mice that were preliminarily determined to respond to a pressure of 40-50 mmHg were used. The maximum stimulating pressure was 100 mmHg. Analgesic activity was calculated as percent of maximum possible effect (% of MPE) according to the following equation: % of MPE =(Pt - Po)/(Pc - Po)× 100 [formula] wherein Po is the pain reaction threshold before the administration of a drug; Pt is the pain reaction threshold "t" minutes after the administration of the drug; and Pc is the maximum stimulating pressure. The results of analgesic activity obtained from subcutaneous administration (skin in the backs) and oral administration are shown in Table 1.

Row | Structure (SMILES) | MPE(%) 1 mg/kg s.c. (%) | MPE(%) 10 mg/kg p.o.(%)
1 | CN(CCC(=O)O)C(=O)[C@H](CC1CCCCC1)NC(=O)[C@@H](CCCNC(=N)N)NC(=O)[C@H](Cc1ccc(O)cc1)NC(=N)N [Example 27, H2NC(NH)-Tyr-D-Arg-Cha-MeβAla-OH·diacetate] | 52.14% | 33.15%
2 | CN(CCC(=O)O)C(=O)[C@H](CCc1ccccc1)NC(=O)[C@@H](CCCNC(=N)N)NC(=O)[C@H](Cc1ccc(O)cc1)NC(=N)N [Example 26, N-H2NC(NH)-Tyr-D-Arg-APBA-MeβAla-OH·diacetate] | 32.83% | 14.44%
3 | CC(=N)N[C@@H](Cc1ccc(O)cc1)C(=O)N[C@H](CCCCN)C(=O)N[C@@H](Cc1ccccc1)C(=O)N(C)CCC(=O)O [Example 19, H3C-C(NH)-Tyr-D-Lys-Phe-MeβAla-OH·diacetate] | 87.11% | 82.29%
4 | CC(=N)N[C@@H](Cc1ccc(O)cc1)C(=O)N[C@H](CC[S+](C)[O-])C(=O)N[C@@H](Cc1ccccc1)C(=O)N(C)CCC(=O)O (stereo partly drawn) [Example 31, H3C-C(NH)-Tyr-D-AMSB-Phe-MeβAla-OH·acetate] | 100% | 96.18%
5 | CC(=N)NC[C@@H](NC(=O)[C@H](Cc1ccc(O)cc1)NC(=N)N)C(=O)N[C@@H](Cc1ccccc1)C(=O)N(C)CCC(=O)O [Example 32, H2NC(NH)-Tyr-D-IEPR-Phe-MeβAla-OH·diacetate] | 66.61% | 52.72%
6 | CN(CCC(=O)O)C(=O)[C@H](Cc1ccccc1)NC(=O)[C@@H](CCCNC(=N)N)NC(=O)[C@H](Cc1ccc(O)c(O)c1)NC(=N)N [Example 4, H2NC(NH)-DOPA-D-Arg-Phe-MeβAla-OH·diacetate] | 70.85% | 18.11%
7 | CC(=N)NCCC[C@@H](NC(=O)[C@H](Cc1ccc(O)cc1)NC(=N)N)C(=O)N[C@@H](Cc1ccccc1)C(=O)N(C)CCC(=O)O [Example 17, H2NC(NH)-Tyr-(R)-IEPE-Phe-MeβAla-OH·diacetate] | 100% | 88.34%
8 | Cc1cc(O)cc(C)c1C[C@H](NC(=N)N)C(=O)N[C@H](CCCNC(=N)N)C(=O)N[C@@H](Cc1ccccc1)C(=O)N(C)CCC(=O)O [Example 2, H2NC(NH)-DMT-D-Arg-Phe-MeβAla-OH·diacetate] | 93.47% | 22.78%
9 | CN(CCC(=O)O)C(=O)[C@H](Cc1ccccc1)NC(=O)[C@@H](CCNC(=N)N)NC(=O)[C@H](Cc1ccc(O)cc1)NC(=N)N [Example 10, H2NC(NH)-Tyr-(R)-AGBA-Phe-MeβAla-OH·diacetate] | 42.78% | 10.62%
10 | CN(CCC(=O)O)C(=O)[C@H](Cc1ccc(O)cc1)NC(=O)[C@@H](CCCNC(=N)N)NC(=O)[C@H](Cc1ccc(O)cc1)NC(=N)N [Example 25, H2NC(NH)-Tyr-D-Arg-Tyr-MeβAla-OH·diacetate] | 22.55% | 10.96%
